Positions count from the first letter of the chain named. Read-outs that look alike come from different tables or passages of the source.
What was measured:
Assay type in all cases: cell-based
[1] = target: T1, wild-type Androgen Receptor (AR-wt) (Homo sapiens, UniProt P10275); experiment: LNCaP-AR-wt ANT reporter assay (ARE firefly luciferase, antagonist mode); details: for IC50: antagonist mode, 400 pM R-1881 challenge, −Log10(IC50 [Molar]), read-out: LNCaP-AR-wt ANT pIC50 (converted); for Emax: read-out: LNCaP-AR-wt ANT MAX % Inh
T1 construct: expressed in transfected cells; host or cells: LNCaP (LNCaP AR (cs))
T1 sequence (P10275 1-920): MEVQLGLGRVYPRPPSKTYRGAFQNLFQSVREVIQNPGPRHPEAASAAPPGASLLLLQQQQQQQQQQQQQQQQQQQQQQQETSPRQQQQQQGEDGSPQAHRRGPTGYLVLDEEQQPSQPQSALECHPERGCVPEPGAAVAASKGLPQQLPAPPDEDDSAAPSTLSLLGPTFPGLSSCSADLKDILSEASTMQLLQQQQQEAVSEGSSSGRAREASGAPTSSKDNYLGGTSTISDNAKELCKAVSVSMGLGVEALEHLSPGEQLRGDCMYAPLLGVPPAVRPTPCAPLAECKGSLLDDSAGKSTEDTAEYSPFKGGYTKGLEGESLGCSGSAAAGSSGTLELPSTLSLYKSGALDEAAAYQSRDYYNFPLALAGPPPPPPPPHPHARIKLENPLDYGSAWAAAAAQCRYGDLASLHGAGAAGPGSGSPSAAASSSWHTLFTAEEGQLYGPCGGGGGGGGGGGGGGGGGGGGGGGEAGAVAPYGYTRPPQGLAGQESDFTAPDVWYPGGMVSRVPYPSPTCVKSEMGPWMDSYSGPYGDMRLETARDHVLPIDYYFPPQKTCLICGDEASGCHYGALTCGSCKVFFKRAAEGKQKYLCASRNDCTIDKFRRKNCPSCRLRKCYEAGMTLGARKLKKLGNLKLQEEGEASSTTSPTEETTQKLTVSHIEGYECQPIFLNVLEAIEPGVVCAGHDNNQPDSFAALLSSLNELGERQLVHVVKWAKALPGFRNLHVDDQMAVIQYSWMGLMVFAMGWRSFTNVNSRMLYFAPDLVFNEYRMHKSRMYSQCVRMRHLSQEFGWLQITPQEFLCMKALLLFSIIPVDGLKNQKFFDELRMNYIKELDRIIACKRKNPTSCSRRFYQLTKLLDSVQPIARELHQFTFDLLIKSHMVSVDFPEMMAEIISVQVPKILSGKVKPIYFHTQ
How it was run: (§1)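 Read-out is luciferase luminescence taken 1 h after Steady-Glo addition, following 20-24 h compound exposure at 37 °C in LNCaP pools stably carrying wild-type or F876L AR. Cells were grown in charcoal-stripped serum. Antagonist wells received agonist at 400 pM (WT) or 600 pM (F876L).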

[2] = target: T2, F876L mutant Androgen Receptor (AR-F876L) (Homo sapiens, UniProt P10275, F877L); experiment: LNCaP-AR-F876L ANT reporter assay (ARE firefly luciferase, antagonist mode); details: for Emax: read-out: LNCaP-AR-F876L ANT MAX % Inh; for IC50: read-out: LNCaP-AR-F876L ANT pIC50 (converted)
T2 construct: expressed in transfected cells; host or cells: LNCaP (LNCaP F876L)
T2 sequence (P10275 1-920 F877L): T1 sequence (P10275 1-920) with F877L
How it was run: as §1

[3] = target: T2, F876L mutant Androgen Receptor (AR-F876L); experiment: LNCaP-AR-F876L AG reporter assay (ARE firefly luciferase, agonist mode); details: for Emax: read-out: LNCaP-AR-F876L AG MAX % Stim
How it was run: (§2)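 LNCaP cells stably expressing wild-type or F876L AR (puromycin-selected pooled populations) were cultured in charcoal-stripped serum medium. In antagonist mode, agonist challenge was 400 pM for wild-type and 600 pM for F876L.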

[4] = target: T1, wild-type Androgen Receptor (AR-wt); experiment: LNCaP-AR-wt AG reporter assay (ARE firefly luciferase, agonist mode); details: for Emax: read-out: LNCaP-AR-wt AG MAX % Stim
How it was run: as §2

[5] = maximum % inhibition of R1881 control response over tested concentration range
[6] = agonist mode, −Log10(EC50 [Molar]), read-out: LNCaP-AR-F876L AG pEC50 (converted)
[7] = agonist mode, −Log10(EC50 [Molar]), read-out: LNCaP-AR-wt AG pEC50 (converted)
[8] = maximum % stimulation (agonist response) over tested concentration range

| Compound | IC50 [1] | Emax [1, 5] | Emax [2, 5] | IC50 [2] | EC50 [3, 6] | Emax [3] | EC50 [4, 7] | Emax [4] | Emax [1] | Emax [2] | EC50 [3] | EC50 [4] | Emax [3, 8] | Emax [4, 8] |
| --- | --- | --- | --- | --- | --- | --- | --- | --- | --- | --- | --- | --- | --- | --- |
| N#Cc1ncc(N2C(=O)C3(CCC3)N(c3ccc(Oc4ccccc4)cc3)C2=S)cc1C(F)(F)F [Cpd 99, 5-[5-oxo-8-(4-phenoxyphenyl)-7-thioxo-6,8-diazaspiro[3.4]octan-6-yl]-3-(trifluoromethyl)pyridine-2-carbonitrile] | 417 nM | 97.2% | 85.9% | 389 nM | > 15100 nM | 1.6% | > 15100 nM | 1.6% | – | – | – | – | – | – |
| CC(C)CCNC(=O)c1ccc(N2C(=S)N(c3cnc(C#N)c(C(F)(F)F)c3)C(=O)C23CCC3)cc1F [Cpd 27, 4-[6-[6-cyano-5-(trifluoromethyl)-3-pyridyl]-5-oxo-7-thioxo-6,8-diazaspiro[3.4]octan-8-yl]-2-fluoro-N-isopentyl-benzamide] | 912 nM | – | – | 631 nM | – | 0.2% | – | 0.4% | 96.8% | 98.8% | > 15100 nM | > 15100 nM | – | – |
| COc1ccc(N2C(=S)N(c3cnc(C#N)c(C)c3)C(=O)C23CCC3)cc1 [Cpd 69, 5-[8-(4-methoxyphenyl)-5-oxo-7-thioxo-6,8-diazaspiro[3.4]octan-6-yl]-3-methyl-pyridine-2-carbonitrile] | 282 nM | 102% | 99.1% | 132 nM | > 15100 nM | – | > 15100 nM | – | – | – | – | – | 0.7% | 0.9% |
| CNC(=O)c1ccc(N2C(=S)N(c3cnc(C#N)c(C)c3)C(=O)C2(C)C)cc1F [Cpd 12, 4-[3-(6-cyano-5-methyl-3-pyridyl)-5,5-dimethyl-4-oxo-2-thioxo-imidazolidin-1-yl]-2-fluoro-N-methyl-benzamide] | 1740 nM | – | – | 229 nM | – | -0.3% | – | 0.9% | 98.4% | 98.7% | > 15100 nM | > 15100 nM | – | – |
| Cc1cc(N2C(=O)C3(CCC3)N(c3ccc(C(=O)NCC4CCOCC4)c(F)c3)C2=S)cnc1C#N [Cpd 3, 4-[6-(6-cyano-5-methyl-3-pyridyl)-5-oxo-7-thioxo-6,8-diazaspiro[3.4]octan-8-yl]-2-fluoro-N-(tetrahydropyran-4-ylmethyl)benzamide] | 1350 nM | 99.6% | 98.9% | 324 nM | > 15100 nM | – | > 15100 nM | – | – | – | – | – | -0.3% | 0.3% |
| N#Cc1ncc(N2C(=O)C3(CCC3)N(c3ccc4ccncc4c3)C2=S)cc1C(F)(F)F [Cpd 7, 5-[8-(7-isoquinolyl)-5-oxo-7-thioxo-6,8-diazaspiro[3.4]octan-6-yl]-3-(trifluoromethyl)pyridine-2-carbonitrile] | 417 nM | – | – | 234 nM | – | 0% | – | -0.2% | 101% | 100% | > 15100 nM | > 15100 nM | – | – |
| N#Cc1ncc(N2C(=O)C3(CCC3)N(c3ccc(O)cc3F)C2=S)cc1C(F)(F)F [Cpd 47, 5-[8-(2-fluoro-4-hydroxy-phenyl)-5-oxo-7-thioxo-6,8-diazaspiro[3.4]octan-6-yl]-3-(trifluoromethyl)pyridine-2-carbonitrile] | 245 nM | 101% | 99.6% | 195 nM | > 15100 nM | 0.4% | > 15100 nM | 0.9% | – | – | – | – | – | – |
| Cc1cc(N2C(=O)C3(CCC3)N(c3ccc(OC4CCSCC4)cc3)C2=S)cnc1C#N [Cpd 13, 3-methyl-5-[5-oxo-8-(4-tetrahydrothiopyran-4-yloxyphenyl)-7-thioxo-6,8-diazaspiro[3.4]octan-6-yl]pyridine-2-carbonitrile] | 407 nM | 102% | 101% | 229 nM | > 15100 nM | – | > 15100 nM | – | – | – | – | – | 0.1% | 0.4% |
| CN1CCC(NC(=O)c2ccc(N3C(=S)N(c4cnc(C#N)c(C(F)(F)F)c4)C(=O)C34CCC4)cc2F)CC1 [Cpd 109, 4-[6-[6-cyano-5-(trifluoromethyl)-3-pyridyl]-5-oxo-7-thioxo-6,8-diazaspiro[3.4]octan-8-yl]-2-fluoro-N-(1-methyl-4-piperidyl)benzamide] | 1950 nM | 97.9% | 98.4% | 741 nM | > 15100 nM | – | > 15100 nM | – | – | – | – | – | 1.1% | 0.2% |
| N#Cc1ncc(N2C(=O)C3(CCC3)N(c3ccc(OC4CCOCC4)cc3)C2=S)cc1C(F)(F)F [Cpd 112, 5-[5-oxo-8-(4-tetrahydropyran-4-yloxyphenyl)-7-thioxo-6,8-diazaspiro[3.4]octan-6-yl]-3-(trifluoromethyl)pyridine-2-carbonitrile] | 355 nM | 100% | 97% | 331 nM | > 15100 nM | – | > 15100 nM | – | – | – | – | – | 2.7% | 1.1% |
| COCCOc1ccc(N2C(=S)N(c3cnc(C#N)c(C)c3)C(=O)C23CCC3)cc1F [Cpd 100, 5-[8-[3-fluoro-4-(2-methoxyethoxy)phenyl]-5-oxo-7-thioxo-6,8-diazaspiro[3.4]octan-6-yl]-3-methyl-pyridine-2-carbonitrile] | 417 nM | 102% | 97.2% | 257 nM | > 15100 nM | – | > 15100 nM | – | – | – | – | – | 1.7% | 1.8% |
| N#Cc1ncc(N2C(=O)C3(CCC3)N(c3cccc(CO)c3)C2=S)cc1C(F)(F)F [Cpd 81, 5-[8-[3-(hydroxymethyl)phenyl]-5-oxo-7-thioxo-6,8-diazaspiro[3.4]octan-6-yl]-3-(trifluoromethyl)pyridine-2-carbonitrile] | 708 nM | – | – | 776 nM | – | 1.2% | – | 0.7% | 95.9% | 100% | > 15100 nM | > 15100 nM | – | – |
